Data taken from EP2054420B1, “BENZIMIDAZO[1,2-C][1,2,3]THIADIAZOL-7-SULFONAMIDES AS INHIBITORS OF CARBONIC ANHYDRASE AND THE INTERMEDIATES FOR PRODUCTION THEREOF” (Biotechnologijos Institutas, priority 2006, dated 2008).

Biological target: bovine carbonic anhydrase II (Bos taurus, UniProt P00921)
Assay: fluorescent thermal shift assay (ANS probe)
Format: binding
Details: upon increasing concentration of the inhibitor; Figure 3
Description: Example 19. Determination of the observed binding constants by the fluorescent thermal shift assay.
Inhibitor binding to carbonic anhytdrases was also measured by the fluorescent thermal shift assay, which employs 1-anilino-8-naphthalene sulfonate (ANS) probe that visualizes enzyme thermal stabilization by the inhibitor thus determining the binding constant.
Resultant data is consistent with the isothermal titration calorimetry data in determining the observed binding constants of the inhibitors.

Sequence of bovine carbonic anhydrase II (P00921 whole entry): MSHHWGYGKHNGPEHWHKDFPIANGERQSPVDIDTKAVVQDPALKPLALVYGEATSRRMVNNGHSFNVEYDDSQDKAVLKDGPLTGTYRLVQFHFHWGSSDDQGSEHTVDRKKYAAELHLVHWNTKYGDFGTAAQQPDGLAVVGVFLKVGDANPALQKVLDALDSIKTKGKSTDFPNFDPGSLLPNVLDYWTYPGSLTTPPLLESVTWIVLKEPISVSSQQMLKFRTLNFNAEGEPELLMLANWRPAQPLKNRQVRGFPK

NS(=O)(=O)c1ccc2nc3n(c2c1)N=S=C3N1CCOCC1 [compound 4, 3-morpholinbenzimidazo[1,2-c][1,2,3]thiadiazol-7-sulfonamide]
melting temperature (Tm): Tm increase
